Experimental data from patent US20230295234A1, “ANTIMICROBIAL PEPTIDOMIMETICS” (SPEXIS AG, priority 2020, published 2023).
Read-outs that look alike come from different tables or passages of the source. Peptide text beside a SMILES is read from it.

What was measured:
[1] = test system: human red blood cells (hRBC); test: Hemolysis of human red blood cells; type: cell-based
Outline: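 PBS-washed human red blood cells (20% v/v) were incubated with peptide at 200 μg/mL for 1 h at 37 °C with shaking. Supernatant OD was read at 540 nm after 8-fold dilution. Hemolysis is expressed as percent of the water control.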

[2] = test system: Escherichia coli MCR-1 Af 45; conditions: Mueller-Hinton broth II, 18-20 hours at 35° C.
Outline: (§1)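 Two-fold serial dilutions of peptide, in water with polysorbate 80 (0.002% final), met bacteria adjusted to 0.5 McFarland then diluted to about 5×10^5 CFU/mL. Medium was cation-adjusted Mueller-Hinton II broth; peptide stocks were 1 mg/mL in sterile water.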

[3] = test system: Klebsiella pneumoniae SSI3010
Outline: as §1

[4] = test system: Escherichia coli ATCC 25922
Outline: as §1

[5] = Mueller-Hinton broth II, 18-20 hours at 35° C.

Compound	Hemolysis at 0.2 g/L ([1]; red cells of human, 1 h) [%]	Escherichia coli MCR-1 Af 45 MIC [2] [µg/mL]	Klebsiella pneumoniae SSI3010 MIC ([3]; SSI3010) [µg/mL]	Escherichia coli ATCC 25922 MIC ([4]; ATCC 25922) [µg/mL]	Hemolysis at 0.2 g/L ([1]; 20% hRBC, 1 h at 37° C.) [%]	Klebsiella pneumoniae SSI3010 MIC [3, 5] [µg/mL]	Escherichia coli ATCC 25922 MIC [4, 5] [µg/mL]
CC[C@H](C)[C@H](NC(=O)[C@@H]1C[C@@H](O)CN1C(=O)[C@@H](N)C(C)C)C(=O)N[C@H](C(=O)N[C@@H](Cc1ccc(O)cc1)C(=O)N[C@@H]1C(=O)N[C@@H](CC(N)=O)C(=O)N[C@@H](CCCNC(=N)N)C(=O)N[C@@H](CCN)C(=O)N[C@@H]([C@@H](C)O)C(=O)N[C@H](CCN)C(=O)N[C@@H](CCCCN)C(=O)N[C@H](C(=O)N[C@@H](CCN)C(=O)N[C@@H](CCCCN)C(=O)N[C@@H](Cc2ccc(O)cc2)C(=O)O)CSSC1(C)C)[C@@H](C)O [Example 178] (HELM PEPTIDE1{V.[Hyp].I.T.Y.[Pen].N.R.[Dab].T.[NCC[C@@H](N[*:1])C(=O)[*:2]].K.C.[Dab].K.Y}$PEPTIDE1,PEPTIDE1,6:R3-13:R3$$$V2.0)	0	0.125	0.5	0.25	–	–	–
CC[C@H](C)[C@H](NC(=O)[C@@H]1C[C@@H](O)CN1C(=O)[C@@H](N)C(C)C)C(=O)N[C@H](C(=O)N[C@@H](Cc1ccc(O)cc1)C(=O)N[C@@H]1C(=O)N[C@@H](CC(N)=O)C(=O)N[C@@H](CCCNC(=N)N)C(=O)N[C@@H](CCN)C(=O)N[C@@H]([C@@H](C)O)C(=O)N[C@H](CCN)C(=O)N[C@@H](CCCCN)C(=O)N[C@H](C(=O)N[C@@H](CCN)C(=O)N[C@@H](CCCN)C(=O)N[C@@H](Cc2ccc(O)cc2)C(=O)O)CSSC1(C)C)[C@@H](C)O [Example 179] (HELM PEPTIDE1{V.[Hyp].I.T.Y.[Pen].N.R.[Dab].T.[NCC[C@@H](N[*:1])C(=O)[*:2]].K.C.[Dab].[Orn].Y}$PEPTIDE1,PEPTIDE1,6:R3-13:R3$$$V2.0)	0	0.0625	0.25	0.125	–	–	–
CC[C@H](C)[C@H](NC(=O)[C@@H]1C[C@@H](O)CN1C(=O)[C@@H](N)C(C)C)C(=O)N[C@H](C(=O)N[C@@H](Cc1ccc(O)cc1)C(=O)N[C@@H]1C(=O)N[C@@H](CC(N)=O)C(=O)N[C@@H](CCCNC(=N)N)C(=O)N[C@@H](CCN)C(=O)N[C@@H]([C@@H](C)O)C(=O)N[C@H](CCN)C(=O)N[C@@H](CCCNC(N)=O)C(=O)N[C@H](C(=O)N[C@@H](CCN)C(=O)N[C@@H](CCCNC(=N)N)C(=O)N[C@@H](Cc2ccc(O)cc2)C(=O)O)CSSC1(C)C)[C@@H](C)O [Example 180] (HELM PEPTIDE1{V.[Hyp].I.T.Y.[Pen].N.R.[Dab].T.[NCC[C@@H](N[*:1])C(=O)[*:2]].[Cit].C.[Dab].R.Y}$PEPTIDE1,PEPTIDE1,6:R3-13:R3$$$V2.0)	1	0.25	0.5	0.25	–	–	–
CC[C@H](C)[C@H](NC(=O)[C@@H]1C[C@@H](O)CN1C(=O)[C@@H](NC)C(C)C)C(=O)N[C@H](C(=O)N[C@@H](Cc1ccc(O)cc1)C(=O)N[C@@H]1C(=O)N[C@@H](CC(N)=O)C(=O)N[C@@H](CCCNC(=N)N)C(=O)N[C@@H](CCN)C(=O)N[C@@H]([C@@H](C)O)C(=O)N[C@H](CCN)C(=O)N[C@@H](CCCCN)C(=O)N[C@H](C(=O)N[C@@H](CCN)C(=O)N[C@@H](CCCNC(=N)N)C(=O)N[C@@H](Cc2ccc(O)cc2)C(=O)O)CSSC1(C)C)[C@@H](C)O [Example 181] (HELM PEPTIDE1{[meV].[Hyp].I.T.Y.[Pen].N.R.[Dab].T.[NCC[C@@H](N[*:1])C(=O)[*:2]].K.C.[Dab].R.Y}$PEPTIDE1,PEPTIDE1,6:R3-13:R3$$$V2.0)	0	0.125	0.25	0.125	–	–	–
CC[C@H](C)[C@H](NC(=O)[C@@H]1C[C@@H](O)CN1C(=O)[C@@H](N)C(C)C)C(=O)N[C@H](C(=O)N[C@@H](Cc1ccc(O)cc1)C(=O)N[C@@H]1C(=O)N[C@@H](CN)C(=O)N[C@@H](CCCNC(=N)N)C(=O)N[C@@H](CCN)C(=O)N[C@@H]([C@@H](C)O)C(=O)N[C@H](CCN)C(=O)N[C@@H](CCCCN)C(=O)N[C@H](C(=O)N[C@@H](CCN)C(=O)N[C@@H](CCCNC(=N)N)C(=O)N[C@@H](Cc2ccc(O)cc2)C(=O)O)CSSC1(C)C)[C@@H](C)O [Example 182] (HELM PEPTIDE1{V.[Hyp].I.T.Y.[Pen].[NC[C@H](N[*:1])C(=O)[*:2]].R.[Dab].T.[NCC[C@@H](N[*:1])C(=O)[*:2]].K.C.[Dab].R.Y}$PEPTIDE1,PEPTIDE1,6:R3-13:R3$$$V2.0)	0	0.125	0.25	0.0625	–	–	–
CC[C@H](C)[C@H](NC(=O)[C@@H]1C[C@@H](O)CN1C(=O)[C@@H](N)C(C)C)C(=O)N[C@@H](CN)C(=O)N[C@@H](Cc1ccc(O)cc1)C(=O)N[C@@H]1C(=O)N[C@@H](CC(N)=O)C(=O)N[C@@H](CCCNC(=N)N)C(=O)N[C@@H](CCN)C(=O)N[C@@H]([C@@H](C)O)C(=O)N[C@H](CCN)C(=O)N[C@@H](CCCCN)C(=O)N[C@H](C(=O)N[C@@H](CCN)C(=O)N[C@@H](CCCNC(=N)N)C(=O)N[C@@H](Cc2ccc(O)cc2)C(=O)O)CSSC1(C)C [Example 183] (HELM PEPTIDE1{V.[Hyp].I.[NC[C@H](N[*:1])C(=O)[*:2]].Y.[Pen].N.R.[Dab].T.[NCC[C@@H](N[*:1])C(=O)[*:2]].K.C.[Dab].R.Y}$PEPTIDE1,PEPTIDE1,6:R3-13:R3$$$V2.0)	0	0.125	0.5	0.25	–	–	–
CC[C@H](C)[C@H](NC(=O)[C@@H]1C[C@@H](O)CN1C(=O)[C@@H](N)C(C)C)C(=O)N[C@@H](CCCNC(=N)N)C(=O)N[C@@H](Cc1ccc(O)cc1)C(=O)N[C@@H]1C(=O)N[C@@H](CC(N)=O)C(=O)N[C@@H](CCCNC(=N)N)C(=O)N[C@@H](CCN)C(=O)N[C@@H]([C@@H](C)O)C(=O)N[C@H](CCN)C(=O)N[C@@H](CCCCN)C(=O)N[C@H](C(=O)N[C@@H](CCN)C(=O)N[C@@H](CCCNC(=N)N)C(=O)N[C@@H](Cc2ccc(O)cc2)C(=O)O)CSSC1(C)C [Example 184] (HELM PEPTIDE1{V.[Hyp].I.R.Y.[Pen].N.R.[Dab].T.[NCC[C@@H](N[*:1])C(=O)[*:2]].K.C.[Dab].R.Y}$PEPTIDE1,PEPTIDE1,6:R3-13:R3$$$V2.0)	0	0.0625	0.25	0.25	–	–	–
CC[C@H](C)[C@H](NC(=O)[C@@H]1C[C@@H](N)CN1C(=O)[C@@H](N)C(C)C)C(=O)N[C@H](C(=O)N[C@@H](Cc1ccc(O)cc1)C(=O)N[C@@H]1C(=O)N[C@@H](CC(N)=O)C(=O)N[C@@H](CCCNC(=N)N)C(=O)N[C@@H](CCN)C(=O)N[C@@H]([C@@H](C)O)C(=O)N[C@H](CCN)C(=O)N[C@@H](CCCCN)C(=O)N[C@H](C(=O)N[C@@H](Cc2ccc(O)cc2)C(=O)N[C@@H](CCCNC(=N)N)C(=O)N[C@@H](Cc2ccc(O)cc2)C(=O)O)CSSC1(C)C)[C@@H](C)O [Example 185] (HELM PEPTIDE1{V.[N[C@@H]1C[C@@H](C(=O)[*:2])N([*:1])C1].I.T.Y.[Pen].N.R.[Dab].T.[NCC[C@@H](N[*:1])C(=O)[*:2]].K.C.Y.R.Y}$PEPTIDE1,PEPTIDE1,6:R3-13:R3$$$V2.0)	0	0.125	0.5	0.25	–	–	–
CC[C@H](C)[C@H](NC(=O)[C@@H](NC(=O)[C@@H]1CCCN1C(=O)[C@@H](NC(=N)N)C(C)C)[C@@H](C)CC)C(=O)N[C@@H](Cc1ccc(O)cc1)C(=O)N[C@H]1CSSC[C@@H](C(=O)N[C@@H](CCN)C(=O)N[C@@H](CCCNC(=N)N)C(=O)N[C@@H](Cc2ccc(O)cc2)C(=O)O)NC(=O)[C@H](CCCCN)NC(=O)[C@@H](CCN)NC(=O)[C@H]([C@@H](C)O)NC(=O)[C@H](CCN)NC(=O)[C@H](CCCNC(=N)N)NC(=O)[C@H](CC(N)=O)NC1=O [Example 186] (HELM PEPTIDE1{[CC(C)[C@H](NC(=N)N)C(=O)[*:2]].P.I.I.Y.C.N.R.[Dab].T.[NCC[C@@H](N[*:1])C(=O)[*:2]].K.C.[Dab].R.Y}$PEPTIDE1,PEPTIDE1,6:R3-13:R3$$$V2.0)	0	0.125	≤0.25	0.125	–	–	–
CC[C@H](C)[C@H](NC(=O)[C@@H](NC(=O)[C@@H]1CCCN1C(=O)[C@@H](NC(=N)N)C(C)C)[C@@H](C)CC)C(=O)N[C@@H](Cc1ccc(O)cc1)C(=O)N[C@@H]1C(=O)N[C@@H](CC(N)=O)C(=O)N[C@@H](CCCNC(=N)N)C(=O)N[C@@H](CCN)C(=O)N[C@@H]([C@@H](C)O)C(=O)N[C@H](CCN)C(=O)N[C@@H](CCCCN)C(=O)N[C@H](C(=O)N[C@@H](CCN)C(=O)N[C@@H](CCCNC(=N)N)C(=O)N[C@@H](Cc2ccc(O)cc2)C(=O)O)CSSC1(C)C [Example 187] (HELM PEPTIDE1{[CC(C)[C@H](NC(=N)N)C(=O)[*:2]].P.I.I.Y.[Pen].N.R.[Dab].T.[NCC[C@@H](N[*:1])C(=O)[*:2]].K.C.[Dab].R.Y}$PEPTIDE1,PEPTIDE1,6:R3-13:R3$$$V2.0)	–	0.125	–	–	0	0.125	0.125
